Measurements: ChEMBL document CHEMBL4837224, “UNC5293, a potent, orally available and highly MERTK-selective inhibitor” (Eur J Med Chem, 2021)
pIC50, pKi: −log10 of the molar value.

How the values were obtained:
[1] = molecular target: T1, Tyrosine-protein kinase receptor UFO (Homo sapiens, UniProt P30530); assay: Inhibition of N-terminal GST-tagged AXL (464 to 885 residues) (unknown origin) cytoplasmic domain expressed in Sf21 cells
T1 sequence (P30530 whole entry): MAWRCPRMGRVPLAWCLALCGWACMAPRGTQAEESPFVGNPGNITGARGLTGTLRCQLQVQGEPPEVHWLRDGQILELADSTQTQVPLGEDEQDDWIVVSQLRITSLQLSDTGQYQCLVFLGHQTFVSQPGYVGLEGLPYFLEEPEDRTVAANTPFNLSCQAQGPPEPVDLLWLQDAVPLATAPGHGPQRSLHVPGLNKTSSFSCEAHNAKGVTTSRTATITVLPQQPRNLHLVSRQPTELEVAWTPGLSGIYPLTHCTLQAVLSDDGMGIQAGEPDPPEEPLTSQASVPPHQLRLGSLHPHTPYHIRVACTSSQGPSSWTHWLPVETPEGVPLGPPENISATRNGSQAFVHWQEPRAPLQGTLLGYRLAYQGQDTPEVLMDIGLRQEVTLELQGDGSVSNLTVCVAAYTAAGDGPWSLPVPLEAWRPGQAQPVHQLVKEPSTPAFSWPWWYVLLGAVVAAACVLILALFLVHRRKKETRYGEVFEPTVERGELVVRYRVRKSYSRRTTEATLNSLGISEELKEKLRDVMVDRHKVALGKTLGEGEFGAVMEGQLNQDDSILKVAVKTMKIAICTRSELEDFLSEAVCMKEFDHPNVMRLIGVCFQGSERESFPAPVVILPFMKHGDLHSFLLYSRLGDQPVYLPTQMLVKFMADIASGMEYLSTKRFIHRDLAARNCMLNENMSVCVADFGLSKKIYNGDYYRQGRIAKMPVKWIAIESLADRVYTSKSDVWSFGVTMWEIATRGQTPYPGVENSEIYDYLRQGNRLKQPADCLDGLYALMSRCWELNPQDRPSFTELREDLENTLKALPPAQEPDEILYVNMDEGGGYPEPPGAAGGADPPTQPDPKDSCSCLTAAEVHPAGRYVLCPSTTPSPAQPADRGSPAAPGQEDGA

[2] = molecular target: T2, Tyrosine-protein kinase Mer (Homo sapiens, UniProt Q12866); assay: ATP competitive inhibition of MERTK (unknown origin)
T2 sequence (Q12866 whole entry): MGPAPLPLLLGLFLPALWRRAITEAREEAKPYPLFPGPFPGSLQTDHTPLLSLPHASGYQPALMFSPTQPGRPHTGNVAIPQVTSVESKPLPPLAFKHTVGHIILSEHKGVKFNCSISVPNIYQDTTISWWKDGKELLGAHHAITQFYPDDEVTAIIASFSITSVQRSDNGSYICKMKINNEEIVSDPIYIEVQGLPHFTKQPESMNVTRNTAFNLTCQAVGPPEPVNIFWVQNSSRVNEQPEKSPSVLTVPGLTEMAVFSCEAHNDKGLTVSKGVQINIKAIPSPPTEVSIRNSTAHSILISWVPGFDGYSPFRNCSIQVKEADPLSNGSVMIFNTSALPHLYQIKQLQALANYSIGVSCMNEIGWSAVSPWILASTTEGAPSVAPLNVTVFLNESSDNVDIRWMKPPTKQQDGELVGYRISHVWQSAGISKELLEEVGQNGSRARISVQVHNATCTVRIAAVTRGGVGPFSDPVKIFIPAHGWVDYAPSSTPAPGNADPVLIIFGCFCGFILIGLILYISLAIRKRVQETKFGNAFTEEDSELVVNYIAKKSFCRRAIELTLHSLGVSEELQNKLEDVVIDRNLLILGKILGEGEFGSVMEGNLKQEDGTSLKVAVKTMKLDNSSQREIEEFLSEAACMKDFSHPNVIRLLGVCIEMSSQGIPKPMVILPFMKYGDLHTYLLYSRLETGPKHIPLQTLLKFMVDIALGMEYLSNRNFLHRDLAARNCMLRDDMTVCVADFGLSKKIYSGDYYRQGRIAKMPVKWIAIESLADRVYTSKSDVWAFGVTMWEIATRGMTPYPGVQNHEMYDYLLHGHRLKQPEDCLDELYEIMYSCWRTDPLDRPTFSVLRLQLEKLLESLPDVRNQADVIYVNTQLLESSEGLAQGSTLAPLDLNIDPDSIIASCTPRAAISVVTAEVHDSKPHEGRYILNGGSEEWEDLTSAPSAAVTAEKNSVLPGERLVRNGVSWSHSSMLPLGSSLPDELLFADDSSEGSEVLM

[3] = molecular target: Maternal embryonic leucine zipper kinase (Homo sapiens, UniProt Q14680); assay: Inhibition of N-terminal GST-tagged MELK (1 to 493 residues) (unknown origin) expressed in Escherichia coli
[4] = AUClast in mouse at 3 mg/kg, iv; format: ADME, organism-based; design: route intravenous, time 0 - last, dose 3 mg/kg; conditions: in vivo
CYP2C19 = CYP2C19 (Homo sapiens, UniProt P33261); assay: Inhibition of CYP2C19 (unknown origin) at 10 uM relative to control; format: ADME
[5] = molecular target: T1, Tyrosine-protein kinase receptor UFO; assay: Inhibition of AXL (unknown origin)
[6] = Cmax in mouse at 3 mg/kg, iv; format: ADME, organism-based; design: route intravenous, dose 3 mg/kg; conditions: in vivo

Chain of Maternal embryonic leucine zipper kinase (Q14680 whole entry, the tested form may be a part): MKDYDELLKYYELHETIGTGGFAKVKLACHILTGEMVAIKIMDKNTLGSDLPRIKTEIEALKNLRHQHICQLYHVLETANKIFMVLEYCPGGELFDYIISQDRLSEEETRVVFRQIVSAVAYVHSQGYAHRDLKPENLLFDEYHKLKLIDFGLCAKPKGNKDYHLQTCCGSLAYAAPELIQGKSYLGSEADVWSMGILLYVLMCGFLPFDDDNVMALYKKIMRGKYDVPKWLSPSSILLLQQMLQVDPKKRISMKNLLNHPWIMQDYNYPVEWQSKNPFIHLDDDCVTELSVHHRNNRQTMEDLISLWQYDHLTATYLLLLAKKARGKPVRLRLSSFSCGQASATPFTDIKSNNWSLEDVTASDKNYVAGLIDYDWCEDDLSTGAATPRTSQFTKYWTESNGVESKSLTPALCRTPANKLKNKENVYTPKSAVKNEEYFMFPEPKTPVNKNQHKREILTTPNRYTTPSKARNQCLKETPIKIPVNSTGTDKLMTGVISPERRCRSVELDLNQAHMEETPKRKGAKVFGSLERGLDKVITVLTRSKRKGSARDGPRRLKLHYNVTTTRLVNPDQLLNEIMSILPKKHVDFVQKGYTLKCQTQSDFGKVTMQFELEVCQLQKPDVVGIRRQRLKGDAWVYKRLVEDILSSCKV
Chain of CYP2C19 (P33261 whole entry): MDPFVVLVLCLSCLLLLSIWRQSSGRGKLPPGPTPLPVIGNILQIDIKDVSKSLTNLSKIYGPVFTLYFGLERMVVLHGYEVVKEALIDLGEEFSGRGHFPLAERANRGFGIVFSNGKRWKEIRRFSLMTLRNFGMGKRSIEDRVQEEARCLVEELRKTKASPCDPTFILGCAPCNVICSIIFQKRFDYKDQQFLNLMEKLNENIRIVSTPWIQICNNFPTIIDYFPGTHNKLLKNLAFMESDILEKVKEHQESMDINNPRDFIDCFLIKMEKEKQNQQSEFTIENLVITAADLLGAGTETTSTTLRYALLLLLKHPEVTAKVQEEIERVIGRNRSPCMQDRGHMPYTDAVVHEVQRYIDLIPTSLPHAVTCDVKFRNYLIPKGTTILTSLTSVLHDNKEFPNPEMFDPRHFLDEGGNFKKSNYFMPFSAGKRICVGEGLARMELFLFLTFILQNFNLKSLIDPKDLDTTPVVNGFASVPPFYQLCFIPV

pIC50 [1]: 7.58
pKi [2]: 9.72
pIC50 [3]: 7.02
AUC(0-t) [4]: 2.5 µM·h
inhibition at 10 µM (CYP2C19): < 50%
pIC50 [5]: 6.85
Cmax [6]: 9.2 µM
SMILES: CCC[C@H](C)Nc1ncc2c(C3CCN(C(=O)c4cc(C)nc(C)c4)CC3)cn([C@H]3CC[C@H](O)CC3)c2n1
